Consider five substances from patent publication US9833497B2, “Human originated EGF domain proteins and use of the same” (CHENGDU SOURCEBIO LIMITED-LIABILITY COMPANY, priority 2013, dated 2017).

Format in all cases: cell-based
The subject of assay [1] is E. coli DH5α. Nature of the assay: Antibacterial activity: MIC and growth curve against E. coli DH5α in 96-well plate. The following applies: minimal inhibitory concentration against E. coli DH5α; 96-well plate, 5×10^5 CFU/mL, 37° C., judged after 8 h. Put shortly:
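Log-phase bacteria (OD600 ~0.5) resuspended in LB at 5×10^5 CFU/mL, exposed to recombinant protein at 50, 25, 12.5 μg/mL final in triplicate, 37 °C shaking at 175 rpm. OD600 read every 30 min; MIC is lowest concentration showing no growth.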

Assay [2] has as its system E. coli BL21. As to the kind of experiment: MIC against Gram-negative bacteria: E. coli BL21. The following applies: 5×10^5 CFU/mL. Put shortly:
(§1)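 Read-out is absence of bacterial growth, with MIC set at the lowest recombinant protein concentration achieving it. Bacteria, pre-grown in LB to McFarland 0.5 and resuspended, were exposed at 5×10^5 CFU/mL to two-fold diluted human EGF domain proteins in triplicate at 37° C, 175 rpm.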

Assay [3] has as its system Pseudomonas aeruginosa. As to the kind of experiment: MIC against Gram-negative bacteria: Pseudomonas aeruginosa. The following applies: 5×10^5 CFU/mL. Put shortly:
as §1

Assay [4] relates to Klebsiella pneumonia. Nature of the assay: MIC against Gram-negative bacteria: Klebsiella pneumonia. Conditions: 5×10^5 CFU/mL. Put shortly:
as §1

In assay [5] the test system is Enterobacter cloacae. Nature of the assay: MIC against Gram-negative bacteria: Enterobacter cloacae. Conditions: 5×10^5 CFU/mL. Put shortly:
as §1

The test system of assay [6] is Aeromonas hydrophila. As to the kind of experiment: MIC against Gram-negative bacteria: Aeromonas hydrophila. The following applies: 5×10^5 CFU/mL. Put shortly: as §1
Assay [7] has as its system Citrobacter diversus. Nature of the assay: MIC against Gram-negative bacteria: Citrobacter diversus. Conditions: 5×10^5 CFU/mL. Put shortly: as §1
Assay [8] relates to Moraxella catarrhalis. Nature of the assay: MIC against Gram-negative bacteria: Moraxella catarrhalis. The following applies: 5×10^5 CFU/mL. Put shortly: as §1
The test system of assay [9] is Proteus mirabilis. As to the kind of experiment: MIC against Gram-negative bacteria: Proteus mirabilis. Conditions: 5×10^5 CFU/mL. Put shortly:
as §1

The subject of assay [10] is Proteus vulgaris. As to the kind of experiment: MIC against Gram-negative bacteria: Proteus vulgaris. Conditions: 5×10^5 CFU/mL. Put shortly:
as §1

The subject of assay [11] is Serratia marcescens. As to the kind of experiment: MIC against Gram-negative bacteria: Serratia marcescens. The following applies: 5×10^5 CFU/mL. Put shortly: as §1
Setting [12] is: E. coli BL21, 10 h cultivation at 37° C.

The term MIC denotes the lowest concentration that inhibits growth of the organism. The low end stands for greater potency, the high end for weaker potency. On to “PRT1402 (DGCPDLCNGNGRCTLGQNSWQCVCQTGWRGPGCN; listed as Homo sapiens)”, for which the MIC in assay [1] stood at 25 µg/mL. Further, the “MIC against E. coli BL21” value in assay [2] (setting [12]) amounted to 12.5 µg/mL. In addition, in [3] (Pseudomonas aeruginosa, 10 h cultivation at 37° C.), the “MIC against P. aeruginosa” value came out at 25 µg/mL. Moreover, in [4] (Klebsiella pneumonia, 10 h cultivation at 37° C.), the “MIC against K. pneumonia” value came out at 12.5 µg/mL. The “MIC against E. cloacae” value in [5] (Enterobacter cloacae, 10 h cultivation at 37° C.) is 50 µg/mL. Also, the “MIC against A. hydrophila” value in assay [6] (Aeromonas hydrophila, 10 h cultivation at 37° C.) stood at 25 µg/mL. Besides, the “MIC against C. diversus” value in assay [7] (Citrobacter diversus, 10 h cultivation at 37° C.) is 12.5 µg/mL. The “MIC against M. catarrhalis” value in assay [8] (Moraxella catarrhalis, 10 h cultivation at 37° C.) was determined as 25 µg/mL. Besides, in assay [9] (Proteus mirabilis, 10 h cultivation at 37° C.), the “MIC against P. mirabilis” value was 50 µg/mL. In addition, the “MIC against P. vulgaris” value in assay [10] (Proteus vulgaris, 10 h cultivation at 37° C.) was 25 µg/mL. In assay [11] (Serratia marcescens, 10 h cultivation at 37° C.), the “MIC against S. marcescens” value came out at 12.5 µg/mL.

Take “PRT492 (CICYGHASSCPWDETTKKLQCQCEHNTCGESCNRCCPGYHQQPWRPGTVSSGNTCEA; listed as Homo sapiens)”: the MIC in assay [1] is 25 µg/mL. For the same substance, the “MIC against E. coli BL21” value in assay [2] (96-well plate, 37° C., 10 h) stood at 50 µg/mL. For the same substance, the “MIC against P. aeruginosa” value in assay [3] (96-well plate, 37° C., 10 h) amounted to 25 µg/mL. Besides, the “MIC against K. pneumonia” value in [4] (96-well plate, 37° C., 10 h) is 12.5 µg/mL. The “MIC against E. cloacae” value in [5] (96-well plate, 37° C., 10 h) was 25 µg/mL. The “MIC against A. hydrophila” value in assay [6] (96-well plate, 37° C., 10 h) worked out at 50 µg/mL. In [7] (96-well plate, 37° C., 10 h), the “MIC against C. diversus” value was 25 µg/mL. For the same substance, the “MIC against M. catarrhalis” value in assay [8] (96-well plate, 37° C., 10 h) was 12.5 µg/mL. Also, the “MIC against P. mirabilis” value in assay [9] (96-well plate, 37° C., 10 h) stood at 50 µg/mL. Further, the “MIC against P. vulgaris” value in assay [10] (96-well plate, 37° C., 10 h) amounted to 12.5 µg/mL. The “MIC against S. marcescens” value in assay [11] (96-well plate, 37° C., 10 h) is 50 µg/mL.

Turning to “PRT787 (RQICDCLNNSTCDHITGTCYCSPGWKGARCD; listed as Homo sapiens)”, the MIC in assay [1] stood at 12.5 µg/mL. In addition, the “MIC (μg/mL) E. coli BL21” value in assay [2] (setting [12]) came to 12.5 µg/mL. For the same substance, the “MIC (μg/mL) P. aeruginosa” value in assay [3] (P. aeruginosa, 10 h cultivation at 37° C.) was 12.5 µg/mL. The “MIC (μg/mL) K. pneumonia” value in assay [4] (K. pneumonia, 10 h cultivation at 37° C.) was 12.5 µg/mL. The “MIC (μg/mL) E. cloacae” value in assay [5] (E. cloacae, 10 h cultivation at 37° C.) amounted to 12.5 µg/mL. Besides, in [6] (A. hydrophila, 10 h cultivation at 37° C.), the “MIC (μg/mL) A. hydrophila” value stood at 12.5 µg/mL. Further, in [7] (C. diversus, 10 h cultivation at 37° C.), the “MIC (μg/mL) C. diversus” value came to 25 µg/mL. In addition, the “MIC (μg/mL) M. catarrhalis” value in assay [8] (M. catarrhalis, 10 h cultivation at 37° C.) turned out to be 50 µg/mL. The “MIC (μg/mL) P. mirabilis” value in [9] (P. mirabilis, 10 h cultivation at 37° C.) came to 25 µg/mL. The “MIC (μg/mL) P. vulgaris” value in assay [10] (P. vulgaris, 10 h cultivation at 37° C.) was found to be 25 µg/mL. Further, the “MIC (μg/mL) S. marcescens” value in assay [11] (S. marcescens, 10 h cultivation at 37° C.) is 12.5 µg/mL.

In turn, “PRT726 (LPPPCRCMHGGNCYFDETDLPKCKCPSGYTGKYCE; listed as Homo sapiens)” returned an MIC in [1] of 12.5 µg/mL. Also, the “MIC E. coli BL21” value in assay [2] (96-well plate, 37° C., 10 h) came out at 50 µg/mL. Moreover, the “MIC P. aeruginosa” value in [3] (96-well plate, 37° C., 10 h) was 25 µg/mL. In assay [4] (96-well plate, 37° C., 10 h), the “MIC K. pneumonia” value is 25 µg/mL. For the same substance, the “MIC E. cloacae” value in assay [5] (96-well plate, 37° C., 10 h) came to 12.5 µg/mL. In [6] (96-well plate, 37° C., 10 h), the “MIC A. hydrophila” value came out at 25 µg/mL. In addition, the “MIC C. diversus” value in assay [7] (96-well plate, 37° C., 10 h) is 50 µg/mL. The “MIC M. catarrhalis” value in assay [8] (96-well plate, 37° C., 10 h) is 25 µg/mL. In addition, in assay [9] (96-well plate, 37° C., 10 h), the “MIC P. mirabilis” value worked out at 12.5 µg/mL. Also, the “MIC P. vulgaris” value in assay [10] (96-well plate, 37° C., 10 h) was found to be 50 µg/mL. Besides, in [11] (96-well plate, 37° C., 10 h), the “MIC S. marcescens” value is 25 µg/mL.

Consider “PRT1321 (AIDECELDMRGGCHTDALCSYVGPGQSRCTCKLGFAGDGYQCS; listed as Homo sapiens)”, for which, in assay [1], the MIC amounted to 50 µg/mL. In [2] (E. coli BL21, 96-well plate, 37° C., 10 h), the “MIC against E. coli BL21” value turned out to be 12.5 µg/mL. For the same substance, the “MIC against P. aeruginosa” value in assay [3] (Pseudomonas aeruginosa, 96-well plate, 37° C., 10 h) is 50 µg/mL. Besides, in assay [4] (Klebsiella pneumonia, 96-well plate, 37° C., 10 h), the “MIC against K. pneumonia” value turned out to be 25 µg/mL. Also, the “MIC against E. cloacae” value in assay [5] (Enterobacter cloacae, 96-well plate, 37° C., 10 h) came to 12.5 µg/mL. Moreover, in assay [6] (Aeromonas hydrophila, 96-well plate, 37° C., 10 h), the “MIC against A. hydrophila” value stood at 50 µg/mL. Further, the “MIC against C. diversus” value in assay [7] (Citrobacter diversus, 96-well plate, 37° C., 10 h) was found to be 12.5 µg/mL. In assay [8] (Moraxella catarrhalis, 96-well plate, 37° C., 10 h), the “MIC against M. catarrhalis” value amounted to 50 µg/mL. Also, in [9] (Proteus mirabilis, 96-well plate, 37° C., 10 h), the “MIC against P. mirabilis” value is 12.5 µg/mL. Further, the “MIC against P. vulgaris” value in assay [10] (Proteus vulgaris, 96-well plate, 37° C., 10 h) came out at 100 µg/mL. The “MIC against S. marcescens” value in [11] (Serratia marcescens, 96-well plate, 37° C., 10 h) was 12.5 µg/mL.
